Source: the supplement of paper PMC10883282

Key:
Assay in all cases: relative viability vs DMSO control (72 h) (fraction); higher = more viable cells
KHOS-240S = tested on: KHOS-240S
In short: (§1)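 Relative viability was measured with ATPLite and expressed as percent growth, averaged across up to triplicate wells. Sarcoma cell lines had been seeded in 384-well plates to reach 80–90% confluence, dosed after 24 h, and incubated 72 h at 37 °C, 5% CO2. All data were rescaled on a scale where 1 is full and 0 is none.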

RD-ES = tested on: RD-ES
In short: as §1

RD = tested on: RD
In short: as §1

SK-ES-1 = tested on: SK-ES-1
In short: as §1

SW982 = tested on: SW982
In short: as §1

COc1cc(OC)cc(N(CCNC(C)C)c2ccc3ncc(-c4cnn(C)c4)nc3c2)c1 [Erdafitinib]
relative viability
Details	KHOS-240S	RD	RD-ES	SK-ES-1	SW982
0.00017 µM	1.06	1.05	0.963	1.02	1.01
0.00051 µM	1.05	1.09	0.971	1.03	0.997
0.00152 µM	1.01	1.08	0.929	1.04	0.954
0.00457 µM	0.999	1.08	0.96	1	0.992
0.01372 µM	0.939	1.09	0.917	0.957	0.984
0.04115 µM	0.828	1.09	0.873	0.876	0.958
0.1235 µM	0.762	1.13	0.873	0.872	0.953
0.3704 µM	0.713	1.13	0.861	0.818	0.888
1.111 µM	0.643	1.11	0.783	0.702	0.544
3.333 µM	0.521	0.677	0.5562	0.33	0.225
10 µM	0.19	0.269	0.148	0.181	0.0452

FC(F)(F)c1ccc(CNc2ccc(Cc3c[nH]c4ncc(Cl)cc34)cn2)cn1 [Pexidartinib]
relative viability
Details	KHOS-240S	RD	RD-ES	SK-ES-1	SW982
0.00017 µM	1.09	1.12	0.973	1.05	1.02
0.00051 µM	1.07	1.1	0.99	1.03	1.05
0.00152 µM	1.07	1.12	1.01	1.02	1.06
0.00457 µM	1.08	1.13	1.02	1.07	1.07
0.01372 µM	1.08	1.13	1.02	1.04	1.05
0.04115 µM	1.08	1.11	0.982	1.06	1.05
0.1235 µM	1.1	1.12	1.01	1.03	1.06
0.3704 µM	1.06	1.15	0.998	1.03	1.05
1.111 µM	0.997	1.14	0.977	0.978	1.09
3.333 µM	1	1.15	0.959	1.02	1.07
10 µM	0.913	1.17	0.969	0.915	1.12

Cc1cn(-c2cc(NC(=O)c3ccc(C)c(Nc4nccc(-c5cnccn5)n4)c3)cc(C(F)(F)F)c2)cn1 [Radotinib]
relative viability
Details	KHOS-240S	RD	RD-ES	SK-ES-1	SW982
0.00017 µM	1.07	1.11	0.982	1.02	1.066
0.00051 µM	1.07	1.1	1.02	1.01	1.07
0.00152 µM	1.07	1.12	1.01	1.047	1.08
0.00457 µM	1.07	1.12	1.02	1.04	1.07
0.01372 µM	1.05	1.12	1.005	1.07	1.069
0.04115 µM	1.06	1.11	1.01	1.07	1.08
0.1235 µM	1.07	1.13	1.03	1.05	1.1
0.3704 µM	1.05	1.12	1.01	1.03	1.11
1.111 µM	1.04	1.1	1	1.02	1.11
3.333 µM	1.05	1.07	0.991	1.01	1.13
10 µM	1.02	1.04	1.01	1.074	1.12
